In patent publication US9603892B2, “Peptide compound for inhibiting restenosis and promoting re-endothelialization and method for preparing the same” (Chonnam National University Hospital, priority 2014, dated 2017):

Test system: vascular smooth muscle cell (SMC)
Test: Effect on proliferation of vascular smooth muscle cell (SMC), XTT assay
Assay type: cell-based
Conditions: 1 uM; XTT at 1, 4 and 7 days; versus untreated control, which grew until 7 days; FIG. 1
Experimental: As cells used in a cell culture, the vascular smooth muscle cell (SMC) which is a smooth muscle cell, and the human umbilical vein endothelial cell (HUVEC) which is the cell for promoting vascular re-endothelialization were purchased from Korea Cell Line Bank, respectively. The cell culture was performed by culturing the vascular smooth muscle cell (SMC) and the human umbilical vein endothelial cell (HUVEC) in Dulbecoco's modified eagle medium (DMEM) with 10% fetal bovine serum (FBS) under conditions of 37° C. and 5% CO2. […]
(§1) 5×10^4 of SMC cells cultured according to Example 2 were cultured in the 24-well cell culture plate and then treated with 1 uM of the peptide compound prepared by Example 2 (hereinafter, referred to as ‘EVR-P’). […] After the reaction, 200 ul of the culture medium was transferred from each well to a 96 well cell culture dish, and degree of color change was measured from absorbance at a 450 nm wavelength by a spectroscopy.
as §1, with “the known Everolimus (EVR)(LC Laboratories).” for “the peptide compound prepared by Example 2 (hereinafter, referred to as ‘EVR-P’).”, “to the” for “to a”

Question: CO[C@H]1C[C@@H]2CC[C@@H](C)[C@@](O)(O2)C(=O)C(=O)N2CCCC[C@H]2C(=O)O[C@H]([C@H](C)C[C@@H]2CC[C@@H](OCCO)[C@H](OC)C2)CC(=O)[C@H](C)/C=C(\C)[C@@H](O)[C@@H](OC)C(=O)[C@H](C)C[C@H](C)/C=C/C=C/C=C/1C [EVR, Everolimus] was tested. Which “SMC cell proliferation (XTT, absorbance at 450 nm)” value did it give?
Answer: Its value is “cell proliferation was inhibited”.
